Source: patent US11173173B2, “Methods for treating chemoresistant cancer-initiating cells” (UNIVERSITY OF CONNECTICUT, priority 2015, dated 2021)

Columns and labels:
[1] = tested on: T-ALL blast cells, LSCs and HSPCs of leukemic Pten:β-cat^Act mice; assay: Flow cytometry of BM of treated leukemic mice (blast cells, LSCs, HSPCs); format: in vivo, mouse; conditions: 10 days post-treatment
Method: Leukemic mice were treated with vehicle, chemotherapy, [Low]DXR or chemotherapy+[Low]DXR as described in FIG. 3a. a-c, At 10 days post-treatment, BM was analyzed by flow cytometry to determine frequency of blast cells (a), LSCs (b) and HSPCs (c). Shown are representative plots. d, Average frequency±SD of each population from a-c (n≥6 per group). e, Limiting-dilution assays to determine CRU frequency were performed on blast cells and LSCs sorted from chemotherapy treated leukemic mice and on HSPCs sorted from [Low]DXR treated mice. Engraftment 1% blast cells) was determined in NSG recipients at 10-12 weeks post-transplant.
Whole bone marrow was isolated from uninduced HSC-SCL-Cre^+ Pten^fx/fx βcat^fx(Exon3)/+ (Pten:β-cat^Act) mice and combined with an equal portion of Cre negative bone marrow from a littermate and transplanted into irradiated (10 Gy) B6.SJL-Ptprc^a Pepc^b/BoyJ (Ptprc) recipients.
Chemotherapy consisted of Nelarabine (Selleck) and Dexamethasone (BioVision) administered daily for 5 days consecutively. 43.4 mg/ml Nelarabine was administered intravenously via the tail vain according to the formula: Body Weight (g)×5=volume to inject (μl), which yielded 217 mg/kg. 2.5 mg/ml Dexamethasone was injected intraperitoneally according to the formula: Body Weight (g)×4=volume to inject (μl), yielding 10 mg/kg. […] [Low]NanoDXR (also referred to as [Low]NanoDoxo throughout) treatment used doxorubicin nanoparticles as described in International Patent Publication WO 2015/054269 (incorporated by reference in its entirety) administered as a single IV injection once per week on day 1 relative to above treatments using 0.8 mg/kg. Maintenance [Low]NanoDXR consisted of once per week injections of 0.4 mg/kg. Groups combining Nelarabine with Doxorubicin used a single injection containing both drugs. All drugs were solubilized in 45% (2-Hydroxypropyl)-β-cyclodextrin (HBC).
Cells were collected from bone marrow (femur and tibia), spleen, peripheral blood, and thymus. For cell surface phenotyping, a lineage cocktail (Lin) was used including CD3 (for HSPC but not LSC analysis), CD4, CD8, Mac-1, Gr1, B220, IgM, and Ter119 (eBioscience, San Diego, Calif.). Monoclonal antibodies against CD3 (separate fluorophore for LSC analysis), Sca-1, c-Kit, CD45.1, and CD45.2 were also used where indicated. Cell sorting and analysis were performed using an inFlux (BD), MoFlo (Dako, Ft. Collins, Colo.) and/or CyAn ADP (Dako, Ft. Collins, Colo.). Data analysis was performed using FlowJo software (Ashland, Oreg.).

pS^552-β-catenin = assay: Western analysis of pS552-β-catenin in compound-treated TOP and FOP cells; conditions: TOP and FOP cells treated 48 hours at EC90, EC50, EC25
Method: (§1) Cytotoxicity profiles (CTG) of compounds were also determined. […] TOP and FOP cells were treated with candidate compounds at EC90, EC50 and EC25 derived from (b) for 48 hours, washed and flash frozen for Western analysis (c).
(§2) Activity of compounds was tested against HEK-TOP cells vs. HEK FOP cells for inhibition of luciferase activity. The cytotoxicity profiles of the compounds were also tested using Cell Titer Glo assay (Promega) on HEK-TOP cell lines. […] The HEK cells and HEK Top cells were plated at 300,000 cells/well in 6 well plates and were treated in duplicate with EC90, EC50 and EC25 concentrations of the 25 repurchased compounds as well as three controls. After 48 h of exposure, the cells were washed with PBS and flash frozen. The frozen cells were lysed directly in plates for Western analysis.

[2] = biological target: T1, EGFP-AKT and mCherry-β-catenin (Mus musculus, UniProt Q02248); assay: FRET assay (acceptor photobleaching) of Akt/β-catenin interaction in 293T cells; format: cell-based; conditions: 25, 50, 100, 200 nM; vehicle 2.24%
T1 construct: host or cells: 293T cells
T1 sequence (Q02248 1-781): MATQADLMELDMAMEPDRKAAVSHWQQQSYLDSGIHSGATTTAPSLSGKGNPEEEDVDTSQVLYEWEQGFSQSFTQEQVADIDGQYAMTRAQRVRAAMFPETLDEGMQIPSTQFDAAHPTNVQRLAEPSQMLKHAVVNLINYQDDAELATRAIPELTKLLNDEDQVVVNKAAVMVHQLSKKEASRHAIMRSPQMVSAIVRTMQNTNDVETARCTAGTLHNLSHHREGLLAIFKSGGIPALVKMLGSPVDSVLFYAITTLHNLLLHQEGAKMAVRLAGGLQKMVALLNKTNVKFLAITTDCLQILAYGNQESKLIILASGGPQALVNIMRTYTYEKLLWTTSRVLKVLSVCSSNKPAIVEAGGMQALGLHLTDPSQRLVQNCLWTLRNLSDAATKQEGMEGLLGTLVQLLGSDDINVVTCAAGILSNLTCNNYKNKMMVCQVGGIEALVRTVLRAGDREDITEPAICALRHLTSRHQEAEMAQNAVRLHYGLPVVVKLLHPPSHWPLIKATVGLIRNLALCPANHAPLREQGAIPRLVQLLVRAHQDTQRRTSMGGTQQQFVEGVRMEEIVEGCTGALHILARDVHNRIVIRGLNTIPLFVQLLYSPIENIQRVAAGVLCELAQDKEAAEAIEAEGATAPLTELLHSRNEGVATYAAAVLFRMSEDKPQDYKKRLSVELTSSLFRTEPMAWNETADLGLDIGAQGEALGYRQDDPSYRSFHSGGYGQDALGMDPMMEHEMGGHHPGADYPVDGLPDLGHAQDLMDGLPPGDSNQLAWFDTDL
Method: FRET measurement was performed by using the acceptor photobleaching method. […] A Perkin-Elmer Ultraview spinning disc system with a CSU-X1 Yokogawa disc was used for imaging. A 40X 1.2 NA Plan-apochromatic objective was used, and emission was collected onto a C9100 Hamamatsu Photonics EM-CCD. EGFP was excited with a 488 nm laser, and emission was collected through a 500-555 nm band pass filter. mCherry was illuminated, and photobleached, with a 561 nm laser. Emission of mCherry was collected with a 580-650 nm band pass filter. 6 images of EGFP were acquired before and 8 images after bleaching of the mCherry with intense 561 nm light. After subtraction of camera background, the average intensity of EGFP in a region of interest spanning the bleached cell was determined in the 4 images before acceptor bleach (I1), or the 4 images after acceptor bleach (I2). FRET efficiency is reported as 1−(I1/I2). Calculations were based on >500 cell images.
To test whether DXR could block interaction between Akt and β-catenin, Fluorescence Resonance Energy Transfer (FRET) analysis using EGFP-AKT and mCherry-β-catenin transfected cells was performed.

pan β-catenin = assay: Western analysis of pan β-catenin in compound-treated TOP and FOP cells; conditions: TOP and FOP cells treated 48 hours at EC90, EC50, EC25
Method: as §1, §2

[3] = Cardiotoxicity based on cardiac troponin I level and histology; format: in vivo; conditions: 1 mg/kg (8 doses) and high single dose
Method: Data are presented as mean±SD (n=5) *P<0.05, **P<0.01. c provides cardiac Troponin I level after administration of free doxorubicin (DOX) and doxorubicin nanoparticles (DOX-NPs).
The doxorubicin nanoparticles have an average particle diameter of 138 nm. […] The release of Dox in PBS was steady at approximately 2% per day, with 24% released in 12 days. […] Cardiotoxicity was tested based on cardiac troponin I level and histology.

COc1cccc2c1C(=O)c1c(O)c3c(c(O)c1C2=O)C[C@@](O)(C(=O)CO)C[C@@H]3O[C@H]1C[C@H](N)[C@H](O)[C@H](C)O1 [DXR, doxorubicin]
LSC reduction, free DXR 5 doses of 0.15 μg/g ([1]; 5 daily injections 0.15 μg/g): ineffective
HSPCs in BM vs vehicle ([1]; [Low]DXR 0.5 mg/kg daily x5): allowed significant recovery of HSPCs
LSCs in BM vs vehicle ([1]; [Low]DXR 0.5 mg/kg daily x5): significantly reduced LSCs compared to vehicle
blast cells in BM vs vehicle ([1]; [Low]DXR 0.5 mg/kg daily x5): did not significantly reduce blast cells
blast cells in BM, [Low]DXR in combination with dexamethasone ([1]; [Low]DXR with Dexa.): does not act as a traditional chemotherapeutic
blast cells in BM, clinical equivalent (normal) dose DXR ([1]; normal dose DXR (8x higher than [Low]) with Dexa.): acted similar to chemotherapy in their reduction
inhibition of pS552-β-catenin (Western) (pS^552-β-catenin): effectively inhibited pS^552-β-catenin
FRET efficiency between EGFP-AKT and mCherry-β-catenin [2]: decreased with increasing concentrations of DXR
effect on pan β-catenin (Western) (pan β-catenin): only minimal effect on pan β-catenin
cardiotoxicity (cardiac troponin I level and histology) [3]: showed cardiotoxicity
